{"source": "patent US6046219A", "about": "“Method for the treatment of conditions mediated by collagen formation together with cell proliferation by application of inhibitors of protein hydroxylation” (Cornell Research Foundation, Inc., priority 1997, dated 2000)", "type_in_all_cases": "cell-based", "key": {"[1]": {"tested_on": "deoxyhypusyl hydroxylase activity in human B-lymphocytes", "assay": "Cellular deoxyhypusyl hydroxylase in human B-lymphocytes", "details": "FIG. 3a", "experimental": "In FIG. 3a, the effect on the human enzyme was determined by measuring in proliferating cultured B-lymphocytes the covalent incorporation of tritiated spermidine-derived label into cellular protein, after standard hydrolysis, chromatographic separation of amino acids, and expression of the results relative to uninhibited controls. In FIG. 3b, a standard chromatographic elution profile is shown as obtained from cultured human smooth muscle cells (\"SMC\"), grown out of coronary atherosclerotic lesions and metabolically labeled in the absence and presence of L-mimosine. […]\n(§1) The cellular conversion of the precursor deoxyhypusine to the hydroxylated hypusine in cells was examined, after preincubation with the inhibitor for 60 minutes, by labeling the human cells with ^3 H-spermidine (5 μCi/ml) in 25 cm^2 flasks (1×10^6 cells/flask) for 24 hours prior to cell lysis, precipitation with 10% TCA containing 1 mM each of putrescine, spermidine, and spermine, and hydrolysis in 6 N HCl at 110° C. for 16 hours. The hydrolysate was analyzed for labeled amino acids on an amino acid analyzer by published methods (Park et al., J. Biol. Chem., 257:7217-7222 (1982), which is hereby incorporated by reference). The retention of purified hypusine and deoxyhypusine was determined from standards."}, "[2]": {"tested_on": "plasminogen activator inhibitor-1 (PAI-1)", "assay": "Plasminogen activator inhibitor assay, SMC supernatants", "details": "human SMC, FIG. 6", "experimental": "Type III collagen biosynthesis (FIG. 6a) was assessed by a commercial radioimmunoassay using a monoclonal antibody to the N-terminal propeptide of type III procollagen. Plasminogen activator inhibitor-1 (\"PAI-1\") activity was measured by a standard enzymatic method. Type I collagen biosynthesis (FIG. 6b) was assessed by routine Western blot using a monoclonal antibody to the C-terminal propeptide of type I procollagen.\nSupernatants of human SMC incubated with the hydroxypyridone L-mimosine under serum-free conditions (to avoid plasma-derived inhibitors) were tested for their ability to inhibit a standard amount of urokinase-type plasminogen activator (uPA) in the presence of plasminogen and the fluorometric peptide plasmin substrate d-Val-Leu-Lys-aminomethylcoumarin (Enzyme Systems, Livermore, Calif.). Inhibition of plasmin generation was compared to a standard curve of human PAI-1 (American Diagnostica, Greenwich, Conn.) to yield PAI-1 activity."}, "[3]": {"biological_target": "T1, cellular human deoxyhypusyl hydroxylase (Homo sapiens, UniProt Q9BU89)", "T1 construct": "endogenous in cells; host or cells: cultured human cells (smooth muscle cells, B-lymphocytes)", "T1 sequence (Q9BU89 1-302)": "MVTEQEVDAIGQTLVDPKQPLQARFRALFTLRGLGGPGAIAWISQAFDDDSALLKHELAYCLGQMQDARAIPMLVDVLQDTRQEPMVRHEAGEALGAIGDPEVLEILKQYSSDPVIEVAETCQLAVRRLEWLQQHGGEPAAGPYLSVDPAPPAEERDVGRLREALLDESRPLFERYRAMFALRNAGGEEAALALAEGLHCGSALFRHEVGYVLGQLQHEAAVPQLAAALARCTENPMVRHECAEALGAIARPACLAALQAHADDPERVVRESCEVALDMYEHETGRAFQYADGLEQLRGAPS", "assay": "Cellular human deoxyhypusyl hydroxylase (DOHH assay, 3H-spermidine labeling)", "excerpt": "The inhibitory action of the substances according to the invention, for example on collagen secretion or cell proliferation, can be tested in direct assays of the enzymes mediating the pivotal protein hydroxylations for these biological processes, such as prolyl 4-hydroxylase and deoxyhypusyl hydroxylase. This entails the enzymatic hydroxylation of the appropriate protein precursor, either by the cellular or the purified enzyme, in the presence or absence of compounds of Formulae (I) or (II), with concomitant determination of co-substrate utilization by these enzymes or subsequent isolation of the hydroxylated amino acid and its unhydroxylated precursor. In this manner, the inhibitory potency of any given compound can be measured in the cell-free system, in cell culture, or in tissue, and is expressed as the inhibitory dose that gives a 50% reduction of the enzyme-mediated reaction (ID50). Enzyme is tested in analogy to the method of A. Abbruzzese, H. M. Hanauske-Abel, et al., Biochem. Biophys. Acta, 1077, 159-166 (1991) and of K. Majamaa, H. M. Hanauske-Abel, et al., Eur. J. Biochem. 138, 239-245 (1984), which are hereby incorporated by reference. Table III lists the ID50 values of some of the compounds according to the invention, using purified human prolyl 4-hydroxylase and cellular human deoxyhypusyl hydroxylase as representative protein hydroxylases.\nThe inhibiting effect of hydroxypyridones on the eIF-5A-hydroxylating enzyme was studied in cultured human cells (i.e. smooth muscle cells, B-lymphocytes).\nas §1"}, "[4]": {"biological_target": "T2, prolyl 4-hydroxylase in human coronary smooth muscle cells (SMC) (Homo sapiens, UniProt P13674)", "T2 construct": "3H-proline to 3H-hydroxyproline conversion", "T2 sequence (P13674 18-534)": "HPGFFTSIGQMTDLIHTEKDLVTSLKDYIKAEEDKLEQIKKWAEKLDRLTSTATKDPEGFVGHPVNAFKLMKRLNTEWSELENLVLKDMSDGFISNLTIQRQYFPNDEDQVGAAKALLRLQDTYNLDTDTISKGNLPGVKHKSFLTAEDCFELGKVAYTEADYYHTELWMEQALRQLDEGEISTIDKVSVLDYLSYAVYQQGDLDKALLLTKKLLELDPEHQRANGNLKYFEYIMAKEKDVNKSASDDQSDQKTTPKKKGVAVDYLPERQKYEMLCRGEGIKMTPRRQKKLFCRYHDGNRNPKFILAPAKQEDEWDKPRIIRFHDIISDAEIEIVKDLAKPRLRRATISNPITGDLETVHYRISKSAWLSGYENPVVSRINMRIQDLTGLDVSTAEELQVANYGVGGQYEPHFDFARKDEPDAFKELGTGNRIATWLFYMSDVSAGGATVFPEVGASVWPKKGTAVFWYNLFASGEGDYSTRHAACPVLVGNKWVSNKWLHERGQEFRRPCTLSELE", "T2 sequence (P07237 18-508 partner)": "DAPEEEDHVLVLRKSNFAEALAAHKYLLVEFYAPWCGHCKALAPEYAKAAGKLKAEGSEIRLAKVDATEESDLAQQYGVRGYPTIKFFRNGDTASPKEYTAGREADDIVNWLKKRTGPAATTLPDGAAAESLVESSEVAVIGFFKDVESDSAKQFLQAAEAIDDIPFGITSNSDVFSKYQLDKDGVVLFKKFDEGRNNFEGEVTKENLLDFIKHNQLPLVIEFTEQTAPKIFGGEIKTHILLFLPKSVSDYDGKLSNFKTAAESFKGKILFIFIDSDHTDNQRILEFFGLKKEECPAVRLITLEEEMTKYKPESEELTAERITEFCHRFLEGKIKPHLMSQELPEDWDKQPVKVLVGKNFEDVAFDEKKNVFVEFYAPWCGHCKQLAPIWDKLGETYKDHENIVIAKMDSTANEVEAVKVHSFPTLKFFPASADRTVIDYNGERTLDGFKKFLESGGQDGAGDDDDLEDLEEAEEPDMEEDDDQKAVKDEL", "assay": "Assay of cellular human prolyl 4-hydroxylase in lesion-derived SMC (3H-proline labeling)", "details": "upon removal of the inhibitor", "experimental": "Those SMC, immunocytochemically identified by reactivity to contractile α-actinas shown in FIGS. 4b and 4c were pretreated with inhibitor for 30 minutes prior to routine metabolic labeling with tritiated proline (\"^3 H-Pro\") for 24 hours, followed by standard hydrolysis and separation of amino acids from both supernatant and cells. The degree of inhibition of scar collagen formation was determined by measuring formation of tritiated hydroxyproline (\"^3 H-Hyp\").\nHuman coronary artery smooth muscle cells (\"SMC\") were isolated from specimens collected immediately after directional rotary atherectomy (Simpson AtheroCath, DVI, Inc., Redwood City, Calif.). […] To verify the SMC phenotype of the cultures, cells were plated onto LabTek 8-chamber slides and stained by indirect immunofluorescence for the SMC marker contractile α-actin, using a mouse monoclonal antibody specific for the contractile smooth muscle α-actin (clone No. IA4; Sigma) which was detected with FITC- or peroxidase-labeled […] (Sigma). […] Results were photodocumented with a Nikon Labophot 2 fluorescence microscope. […]"}}, "note": "Entries after “also recorded” stand apart in the source; their conditions may differ.", "data": [{"compound": "N[C@@H](Cn1ccc(=O)c(O)c1)C(=O)O", "note": "[L-Mimosine]", "values": [{"measurement": "inhibition of deoxyhypusyl hydroxylase activity", "setting": "[1]", "result": "inhibit deoxyhypusyl hydroxylase activity"}, {"measurement": "secretion of plasminogen activator inhibitor-1 (PAI-1)", "setting": "[2]", "result": "not affected; also recorded: not on release of plasminogen activator inhibitor-1"}, {"measurement": "inhibition of deoxyhypusyl hydroxylase", "setting": "[3]; FIG. 3, assayed in vitro", "result": "directly inhibit"}, {"measurement": "Deoxyhypusyl hydroxylase ID50 (cellular)", "setting": "[3]; cellular human enzyme, inhibitory dose that gives 50% reduction of the enzyme-mediated reaction, unit assumed", "result": 65, "unit": "µM"}, {"measurement": "reversibility of suppression of cellular prolyl hydroxylase activity", "setting": "[4]", "result": "rapidly reversible"}]}]}
